Where a name gives a salt, the structure may show the parent alone. Read-outs that look alike come from different tables or passages of the source.
Columns and labels:
Escherichia Coli 7881 = experiment: In vitro antibacterial activity, liquid medium dilution (MIC); type: cell-based; settings: 37° C., read-out: minimum inhibiting concentration (MIC)
Experimental: (§1) The method used was a dilution of a liquid medium where a series of tubes received the same quantity of a sterile nutritive media and increasing doses of the test compounds were placed therein. Then each tube was seeded with a bacterial strain and was incubated for 24 to 48 hours at 37° C. in an oven. The increasing inhibition was determined by transillumination to determine the minimum inhibiting concentration (MIC in μg/ml) and the results are reported in the following Tables.
(§2) Product A is the crystalline D form of the syn isomer of sodium 3-acetoxymethyl-7-[2-(2-amino-4-thiazolyl)-2-methoxyimino-acetamido]-ceph- 3-eme-4-carboxylate.

Escherichia Coli A 223 = experiment: as above; type: cell-based; settings: 37° C., read-out: minimum inhibiting concentration (MIC)
Experimental: as §1, §2

[1] = test system: Escherichia Coli T 55 4076; experiment: as above; type: cell-based; settings: 37° C., read-out: minimum inhibiting concentration (MIC)
Experimental: as §1, §2

[2] = test system: Escherichia Coli T 55 4376; experiment: as above; type: cell-based; settings: 37° C., read-out: minimum inhibiting concentration (MIC)
Experimental: as §1, §2

[3] = test system: Klebsiella Pneumoniae COc 229; experiment: as above; type: cell-based; settings: 37° C., read-out: minimum inhibiting concentration (MIC)
Experimental: as §1, §2

[4] = test system: Klebsiella Pneumoniae COc 238; experiment: as above; type: cell-based; settings: 37° C., read-out: minimum inhibiting concentration (MIC)
Experimental: as §1, §2

Proteus Mirabilis 1816 = experiment: as above; type: cell-based; settings: 37° C., read-out: minimum inhibiting concentration (MIC)
Experimental: as §1, §2

Proteus Mirabilis 3477 = experiment: as above; type: cell-based; settings: 37° C., read-out: minimum inhibiting concentration (MIC)
Experimental: as §1, §2

Proteus Mirabilis 9048 = experiment: as above; type: cell-based; settings: 37° C., read-out: minimum inhibiting concentration (MIC)
Experimental: as §1, §2

Proteus Vulgaris Co 1 = experiment: as above; type: cell-based; settings: 37° C., read-out: minimum inhibiting concentration (MIC)
Experimental: as §1, §2

Proteus Vulgaris Co 4 = experiment: as above; type: cell-based; settings: 37° C., read-out: minimum inhibiting concentration (MIC)
Experimental: as §1, §2

Proteus Vulgaris Du 27 = experiment: as above; type: cell-based; settings: 37° C., read-out: minimum inhibiting concentration (MIC)
Experimental: as §1, §2

[5] = test system: Salmonella typhimurium 6478; experiment: as above; type: cell-based; settings: Salmonella enterica, 37° C., read-out: minimum inhibiting concentration (MIC)
Experimental: as §1, §2

[6] = test system: Staphylococcus aureus I H 005; experiment: as above; type: cell-based; settings: 37° C., read-out: minimum inhibiting concentration (MIC)
Experimental: as §1, §2

[7] = test system: Staphylococcus aureus I H 38; experiment: as above; type: cell-based; settings: 37° C., read-out: minimum inhibiting concentration (MIC)
Experimental: as §1, §2

[8] = test system: Staphylococcus aureus I H 41; experiment: as above; type: cell-based; settings: 37° C., read-out: minimum inhibiting concentration (MIC)
Experimental: as §1, §2

[9] = test system: Staphylococcus aureus I H 47; experiment: as above; type: cell-based; settings: 37° C., read-out: minimum inhibiting concentration (MIC)
Experimental: as §1, §2

[10] = Stability test, percent of activity remaining on storage; type: physicochemical; settings: nonsterile air; for % of activity after storage: time 0, closed flask
Experimental: Product A was placed in a flask containing nonsterile air and it was closed with a rubber stopper. The flask was stored at the temperatures for the times indicated in the following table and the percent of activity remaining was determined.

[11] = Affinity to atmospheric humidity / hygroscopicity; type: physicochemical; settings: solid

**Q.** Which results are given for `CO/N=C(\C(=O)NC1C(=O)N2C(C(=O)O)=C(COC(C)=O)CSC12)c1csc(N)n1` (stereo not drawn) [Product A, sodium 3-acetoxymethyl-7-[2-(2-amino-4-thiazolyl)-2-methoxyimino-acetamido]-ceph-3-eme-4-carboxylate]?
**A.** MIC (Escherichia Coli 7881; COLI7881, 24 H): 0.1 mg/L; MIC (Escherichia Coli 7881; COLI7881, 48 H): 0.1 mg/L; MIC (Escherichia Coli A 223; COLIA223, 24 H): 0.1 mg/L; MIC (Escherichia Coli A 223; COLIA223, 48 H): 0.1 mg/L; MIC ([1]; COLIT554076, 24 H): 0.05 mg/L; MIC ([1]; COLIT554076, 48 H): 0.05 mg/L; MIC ([2]; COLIT554376, 24 H): 0.1 mg/L; MIC ([2]; COLIT554376, 48 H): 0.1 mg/L; MIC ([3]; 24 H): 0.1 mg/L; MIC ([3]; 48 H): 0.1 mg/L; MIC ([4]; 24 H): 0.2 mg/L; MIC ([4]; 48 H): 0.2 mg/L; MIC (Proteus Mirabilis 1816; 24 H): 0.05 mg/L; MIC (Proteus Mirabilis 1816; 48 H): 0.05 mg/L; MIC (Proteus Mirabilis 3477; 24 H): 0.05 mg/L; MIC (Proteus Mirabilis 3477; 48 H): 0.05 mg/L; MIC (Proteus Mirabilis 9048; 24 H): 0.02 mg/L; MIC (Proteus Mirabilis 9048; 48 H): 0.02 mg/L; MIC (Proteus Vulgaris Co 1; 24 H): 0.2 mg/L; MIC (Proteus Vulgaris Co 1; 48 H): 0.4 mg/L; MIC (Proteus Vulgaris Co 4; 24 H): 0.6 mg/L; MIC (Proteus Vulgaris Co 4; 48 H): 0.6 mg/L; MIC (Proteus Vulgaris Du 27; 24 H): ≤ 0.02 mg/L; MIC (Proteus Vulgaris Du 27; 48 H): ≤ 0.02 mg/L; MIC ([5]; 24 H): 0.1 mg/L; MIC ([5]; 48 H): 0.1 mg/L; MIC ([6]; IH005, 24 H): 2 mg/L; MIC ([6]; IH005, 48 H): 3 mg/L; MIC ([7]; IH38, 24 H): 1 mg/L; MIC ([7]; IH38, 48 H): 2 mg/L; MIC ([8]; IH41, 24 H): 1 mg/L; MIC ([8]; IH41, 48 H): 2 mg/L; MIC ([9]; IH47, 24 H): 2 mg/L; MIC ([9]; IH47, 48 H): 2 mg/L; remaining at 1080 h ([10]; 50° C., 1.5 months, closed flask, read-out: % of activity after storage): 92.5%; remaining at 2160 h ([10]; 50° C., 3 months, closed flask, read-out: % of activity after storage): 92%; % of activity after storage ([10]; 50° C.): 97%; remaining at 336 h ([10]; 80° C., 2 weeks, closed flask, read-out: % of activity after storage): 81.5%; remaining at 160 h ([10]; 80° C., 160 hours, closed flask, read-out: % of activity after storage): 89.5%; % of activity after storage ([10]; 80° C.): 97%; affinity to atmospheric humidity / hygroscopicity ([11]; listed as crystalline D form): low affinity to atmospheric humidity

**Q.** Which “affinity to atmospheric humidity / hygroscopicity” value [11] does the source give for `CO/N=C(\C(=O)NC1C(=O)N2C(C(=O)O)=C(COC(C)=O)CSC12)c1csc(N)n1` (stereo not drawn) [sodium salt not containing methanol, sodium 3-acetoxymethyl-7-[2-(2-amino-4-thiazolyl)-2-methoxyimino-acetamido]-ceph-3-eme-4-carboxylate] here?
**A.** hygroscopic
